From ChEMBL document CHEMBL1155385, “The identification of a selective dopamine D2 partial agonist, D3 antagonist displaying high levels of brain exposure” (Bioorg Med Chem Lett, 2010)
Converted amounts (≈) assume the structure as drawn.

How the values were obtained:
D(2) dopamine receptor = D(2) dopamine receptor (Homo sapiens, UniProt P14416); assay: Partial agonistic activity at human dopamine D2 receptor expressed in CHO cells by assay [35S]GTPgamma assay with scintillation proximity affinity assay; format: functional, cell-based
D(2) dopamine receptor, sequence (P14416 whole entry): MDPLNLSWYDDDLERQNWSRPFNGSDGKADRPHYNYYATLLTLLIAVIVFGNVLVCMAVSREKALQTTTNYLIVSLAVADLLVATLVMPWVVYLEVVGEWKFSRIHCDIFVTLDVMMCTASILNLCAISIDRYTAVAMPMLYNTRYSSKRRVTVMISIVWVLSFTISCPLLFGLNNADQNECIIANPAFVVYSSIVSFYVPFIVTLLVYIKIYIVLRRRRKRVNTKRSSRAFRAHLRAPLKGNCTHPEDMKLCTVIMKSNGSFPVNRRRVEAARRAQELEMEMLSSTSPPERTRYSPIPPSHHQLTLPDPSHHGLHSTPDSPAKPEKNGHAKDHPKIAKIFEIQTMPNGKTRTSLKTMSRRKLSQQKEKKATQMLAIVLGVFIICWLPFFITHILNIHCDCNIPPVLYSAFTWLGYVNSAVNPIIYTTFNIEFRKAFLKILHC

D(3) dopamine receptor = D(3) dopamine receptor (Homo sapiens, UniProt P35462); assay: Antagonist activity at human dopamine D3 receptor expressed in CHO cells assessed as inhibition of quinperol-induced [35S]GTPgamma binding by scintillation proximity affinity assay; format: functional, cell-based
D(3) dopamine receptor, sequence (P35462 whole entry): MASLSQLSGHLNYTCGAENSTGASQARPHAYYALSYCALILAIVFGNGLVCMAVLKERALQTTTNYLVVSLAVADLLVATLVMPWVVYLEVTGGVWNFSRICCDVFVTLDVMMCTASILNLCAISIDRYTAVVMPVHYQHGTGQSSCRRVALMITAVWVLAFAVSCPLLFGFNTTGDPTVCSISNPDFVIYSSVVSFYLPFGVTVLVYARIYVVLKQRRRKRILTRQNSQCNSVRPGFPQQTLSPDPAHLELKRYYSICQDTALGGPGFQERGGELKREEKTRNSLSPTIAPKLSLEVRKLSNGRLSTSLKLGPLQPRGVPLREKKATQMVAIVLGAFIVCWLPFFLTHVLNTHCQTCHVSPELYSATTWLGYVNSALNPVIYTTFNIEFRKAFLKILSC

[1] = target: 5-hydroxytryptamine receptor 1D (Homo sapiens, UniProt P28221); assay: Binding affinity to 5HT1D receptor
5-hydroxytryptamine receptor 1D, sequence (P28221 whole entry): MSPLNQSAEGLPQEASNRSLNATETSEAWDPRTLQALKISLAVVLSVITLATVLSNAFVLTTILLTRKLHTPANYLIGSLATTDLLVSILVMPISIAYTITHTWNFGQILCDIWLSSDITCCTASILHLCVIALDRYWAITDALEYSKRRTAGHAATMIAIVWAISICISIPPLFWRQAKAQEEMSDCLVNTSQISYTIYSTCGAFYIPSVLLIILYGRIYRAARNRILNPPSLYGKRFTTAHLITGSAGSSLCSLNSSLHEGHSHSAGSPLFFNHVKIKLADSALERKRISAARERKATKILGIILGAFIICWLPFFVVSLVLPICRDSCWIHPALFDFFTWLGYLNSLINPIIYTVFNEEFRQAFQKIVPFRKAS

[2] = target: T1, Alpha-1B adrenergic receptor (Homo sapiens, UniProt P35368); assay: Activity at Alpha-1B adrenergic receptor
T1 sequence (P35368 whole entry): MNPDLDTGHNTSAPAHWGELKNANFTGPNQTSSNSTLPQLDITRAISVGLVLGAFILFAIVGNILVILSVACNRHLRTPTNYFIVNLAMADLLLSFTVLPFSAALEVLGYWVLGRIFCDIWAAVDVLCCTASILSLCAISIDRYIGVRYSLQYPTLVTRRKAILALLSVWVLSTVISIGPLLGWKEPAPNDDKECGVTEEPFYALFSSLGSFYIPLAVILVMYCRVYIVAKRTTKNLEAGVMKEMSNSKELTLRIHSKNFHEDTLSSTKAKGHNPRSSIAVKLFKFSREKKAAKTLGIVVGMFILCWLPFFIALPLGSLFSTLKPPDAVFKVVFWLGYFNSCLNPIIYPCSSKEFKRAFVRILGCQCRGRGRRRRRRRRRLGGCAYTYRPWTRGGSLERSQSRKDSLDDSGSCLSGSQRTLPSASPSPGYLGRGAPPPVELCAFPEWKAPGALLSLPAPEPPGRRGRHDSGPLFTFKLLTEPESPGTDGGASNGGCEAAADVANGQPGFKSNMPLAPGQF

Histamine H1 receptor = Histamine H1 receptor (Homo sapiens, UniProt P35367); assay: Activity at histamine H1 receptor
Histamine H1 receptor, sequence (P35367 whole entry): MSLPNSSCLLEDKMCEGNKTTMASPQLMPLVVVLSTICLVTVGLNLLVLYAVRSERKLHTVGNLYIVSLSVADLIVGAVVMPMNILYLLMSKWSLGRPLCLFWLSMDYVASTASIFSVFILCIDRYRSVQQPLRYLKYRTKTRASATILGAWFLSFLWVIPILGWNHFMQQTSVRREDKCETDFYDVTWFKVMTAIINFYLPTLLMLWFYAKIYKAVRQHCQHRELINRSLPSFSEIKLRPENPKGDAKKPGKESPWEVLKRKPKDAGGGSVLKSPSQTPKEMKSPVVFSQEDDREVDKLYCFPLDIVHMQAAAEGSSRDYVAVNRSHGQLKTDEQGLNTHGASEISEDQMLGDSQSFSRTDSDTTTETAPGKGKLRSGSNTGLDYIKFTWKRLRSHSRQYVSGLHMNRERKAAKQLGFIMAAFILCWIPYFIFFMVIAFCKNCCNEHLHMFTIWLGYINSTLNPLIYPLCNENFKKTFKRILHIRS

[3] = target: 5-hydroxytryptamine receptor 2A (Homo sapiens, UniProt P28223); assay: Activity at 5HT2A receptor
5-hydroxytryptamine receptor 2A, sequence (P28223 whole entry): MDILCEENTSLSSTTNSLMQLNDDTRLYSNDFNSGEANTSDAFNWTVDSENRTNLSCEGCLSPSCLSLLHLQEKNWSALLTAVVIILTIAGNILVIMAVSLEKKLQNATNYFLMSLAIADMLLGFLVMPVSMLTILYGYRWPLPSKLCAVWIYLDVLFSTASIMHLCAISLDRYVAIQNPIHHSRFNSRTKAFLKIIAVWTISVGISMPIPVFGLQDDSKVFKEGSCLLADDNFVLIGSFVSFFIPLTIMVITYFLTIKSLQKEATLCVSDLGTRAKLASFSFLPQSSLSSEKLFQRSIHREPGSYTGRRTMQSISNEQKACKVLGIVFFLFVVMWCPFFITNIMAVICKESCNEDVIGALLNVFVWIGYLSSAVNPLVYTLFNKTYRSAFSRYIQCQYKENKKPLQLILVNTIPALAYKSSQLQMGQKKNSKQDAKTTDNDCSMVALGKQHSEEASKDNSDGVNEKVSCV

[4] = Lipophilicity, log D at pH 7.4; format: physicochemical; settings: buffer
Cytochrome P450 2D6 = Cytochrome P450 2D6 (Homo sapiens, UniProt P10635); assay: Inhibition of human recombinant CYP2D6 by spectrofluorimetry; format: ADME
Cytochrome P450 2D6, sequence (P10635 whole entry): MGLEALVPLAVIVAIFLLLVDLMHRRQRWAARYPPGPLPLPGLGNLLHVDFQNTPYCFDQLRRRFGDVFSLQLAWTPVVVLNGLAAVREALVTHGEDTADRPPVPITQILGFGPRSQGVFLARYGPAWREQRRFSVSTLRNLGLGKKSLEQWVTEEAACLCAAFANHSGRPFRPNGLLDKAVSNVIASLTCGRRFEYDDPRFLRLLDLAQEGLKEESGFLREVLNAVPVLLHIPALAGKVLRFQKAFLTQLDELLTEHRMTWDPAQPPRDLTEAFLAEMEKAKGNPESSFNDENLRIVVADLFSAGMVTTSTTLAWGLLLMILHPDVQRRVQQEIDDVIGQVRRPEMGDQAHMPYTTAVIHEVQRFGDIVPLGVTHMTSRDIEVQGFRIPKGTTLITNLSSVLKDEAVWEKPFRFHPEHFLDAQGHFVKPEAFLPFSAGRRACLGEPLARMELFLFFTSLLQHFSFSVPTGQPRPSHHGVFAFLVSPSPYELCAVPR

[5] = Solubility of the compound; format: physicochemical
[6] = target: Voltage-gated inwardly rectifying potassium channel KCNH2 (Homo sapiens, UniProt Q12809); assay: Displacement of [3H]dofetilide from human ERG by scintillation proximity assay
Voltage-gated inwardly rectifying potassium channel KCNH2, sequence (Q12809 whole entry): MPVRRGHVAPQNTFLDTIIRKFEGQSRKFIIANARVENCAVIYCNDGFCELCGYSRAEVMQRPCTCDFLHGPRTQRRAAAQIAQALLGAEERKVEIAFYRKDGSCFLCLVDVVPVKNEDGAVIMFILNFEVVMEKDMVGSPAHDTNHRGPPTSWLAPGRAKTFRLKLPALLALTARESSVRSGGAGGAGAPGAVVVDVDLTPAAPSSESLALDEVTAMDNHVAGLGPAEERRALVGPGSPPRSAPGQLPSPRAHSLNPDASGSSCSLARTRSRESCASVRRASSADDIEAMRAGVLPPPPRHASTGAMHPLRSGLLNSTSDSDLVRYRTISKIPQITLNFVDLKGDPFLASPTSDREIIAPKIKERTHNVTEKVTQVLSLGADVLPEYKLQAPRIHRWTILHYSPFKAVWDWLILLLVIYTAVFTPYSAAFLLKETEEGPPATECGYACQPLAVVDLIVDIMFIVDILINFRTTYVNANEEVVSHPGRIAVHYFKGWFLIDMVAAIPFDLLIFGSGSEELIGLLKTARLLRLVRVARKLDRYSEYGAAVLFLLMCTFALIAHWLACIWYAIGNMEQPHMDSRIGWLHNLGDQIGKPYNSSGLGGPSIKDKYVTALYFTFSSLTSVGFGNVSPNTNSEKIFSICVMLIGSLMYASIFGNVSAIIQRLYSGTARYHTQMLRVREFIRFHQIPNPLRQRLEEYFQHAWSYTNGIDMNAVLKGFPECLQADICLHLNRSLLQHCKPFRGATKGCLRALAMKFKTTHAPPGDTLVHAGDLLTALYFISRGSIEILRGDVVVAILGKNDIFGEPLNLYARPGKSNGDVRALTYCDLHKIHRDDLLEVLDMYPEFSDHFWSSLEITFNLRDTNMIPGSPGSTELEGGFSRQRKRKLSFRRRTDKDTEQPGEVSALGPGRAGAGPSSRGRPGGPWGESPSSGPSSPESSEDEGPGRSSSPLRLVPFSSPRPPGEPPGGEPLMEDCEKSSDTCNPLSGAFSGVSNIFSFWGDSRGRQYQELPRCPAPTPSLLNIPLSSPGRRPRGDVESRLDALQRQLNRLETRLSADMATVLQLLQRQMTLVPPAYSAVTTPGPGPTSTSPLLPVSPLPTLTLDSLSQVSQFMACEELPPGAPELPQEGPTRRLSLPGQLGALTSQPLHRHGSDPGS

[7] = target: T2, 5-hydroxytryptamine receptor 1A (Homo sapiens, UniProt P08908); assay: Binding affinity to 5HT1A receptor
T2 sequence (P08908 whole entry): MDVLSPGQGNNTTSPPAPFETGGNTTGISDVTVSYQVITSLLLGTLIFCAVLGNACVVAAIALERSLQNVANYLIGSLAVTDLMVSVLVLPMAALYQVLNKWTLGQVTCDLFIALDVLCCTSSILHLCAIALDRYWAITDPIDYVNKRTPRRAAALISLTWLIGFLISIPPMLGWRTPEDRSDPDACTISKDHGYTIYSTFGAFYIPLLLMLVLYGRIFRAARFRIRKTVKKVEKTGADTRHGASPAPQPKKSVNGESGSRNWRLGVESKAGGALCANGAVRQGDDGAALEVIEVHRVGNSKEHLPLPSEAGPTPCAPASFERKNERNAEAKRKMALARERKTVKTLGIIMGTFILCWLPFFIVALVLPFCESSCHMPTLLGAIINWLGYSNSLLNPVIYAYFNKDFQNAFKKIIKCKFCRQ

[8] = Intrinsic clearance in human liver microsomes; format: ADME, Microsome
Liver microsomes = assay: Intrinsic clearance in rat liver microsomes; format: ADME, Microsome

SMILES	EC50 (D(2) dopamine receptor)	Ki (D(2) dopamine receptor)	EC50 (D(3) dopamine receptor)	Ki (D(3) dopamine receptor)	also measured
O=C1N(CC2CCCCN2)CCN1c1cccnc1 (stereo not drawn)	501 nM	> 631 nM	> 3.16 µM	> 631 nM	
O=C1N(CCN2CCCCCC2)CCN1c1cccc(Cl)c1	1 nM	10 nM	> 3.16 µM	5.01 nM	
Cc1ccc(N2CCN(CCN3CCCCCC3)C2=O)cc1	> 7940 nM	50.1 nM	> 3.16 µM	126 nM	
CN1CCCCC1CN1CCN(c2cccc(Cl)c2)C1=O (stereo not drawn)	2.51 nM	15.8 nM	> 3.16 µM	3.98 nM	
O=C1N(CCN2CCCCCC2)CCN1c1ccc(Cl)cc1	50.1 nM	100 nM	> 3.16 µM	79.4 nM	
O=C1N(CCN2CCCCCC2)CCN1c1cc(Cl)cc(Cl)c1	> 7940 nM	0.631 nM	> 3.16 µM	1.58 nM	
Cc1ccccc1N1CCN(CCN2CCCCCC2)C1=O	> 7940 nM	> 631 nM	> 3.16 µM	> 631 nM	
Cc1cccc(N2CCN(CCN3CCCCCC3)C2=O)c1	10 nM	25.1 nM	> 3.16 µM	79.4 nM	
COc1cccc(N2CCN(CCN3CCCCCC3)C2=O)c1	> 7940 nM	39.8 nM	> 3.16 µM	50.1 nM	
O=C1N(CCN2CCCCCC2)CCN1c1cccc(C(F)(F)F)c1	> 7940 nM	1.58 nM	> 3.16 µM	1 nM	
O=C1N(CCN2CCCCCC2)CCN1c1ccccc1	0.631 nM	7.94 nM	> 3.16 µM	63.1 nM	
O=C1N(CCN2CCCCCC2)CCN1c1cccc(F)c1	0.794 nM	2.51 nM	> 3.16 µM	15.8 nM	
O=C1N(CCN2CCCCCC2)CCN1c1ccc(F)cc1	10 nM	63.1 nM	> 3.16 µM	251 nM	
O=C1N(CCN2CCCCCC2)CCN1c1ccc(F)c(Cl)c1	10 nM	15.8 nM	> 3.16 µM	25.1 nM	
O=C1N(CCN2CCCCCC2)CCN1c1cccnc1	7.94 nM	100 nM	> 3.16 µM	79.4 nM	
O=C1N(CCN2CCCCCC2)CCN1c1ccncc1	> 3160 nM	631 nM	> 3.16 µM	> 631 nM	
O=c1n(CCN2CCCCCC2)ccn1-c1cccc(Cl)c1	126 nM	398 nM	> 3.16 µM	> 631 nM	
O=S1(=O)N(CCN2CCCCCC2)CCN1c1cccc(Cl)c1	126 nM	200 nM	> 3.16 µM	316 nM	
O=C1N(CC2CCCCN2)CCN1c1cccc(Cl)c1 (stereo not drawn)	0.631 nM	79.4 nM	> 3.16 µM	3.98 nM	EC50 [1]: 501 nM; Ki [2]: > 251 nM; Ki (Histamine H1 receptor): > 2510 nM; Ki [3]: > 1580 nM; logD [4]: 1.24; IC50 (Cytochrome P450 2D6): 1000 nM; solubility [5]: 148 µg/mL (≈ 504 µM); IC50 [6]: 7.94 µM; EC50 [7]: 794 nM; CLint scaled [8]: 3.4 mL/min/g; CL (Liver microsomes): 23.7 mL/min/g
O=C1N(CC2CCCNC2)CCN1c1cccc(Cl)c1 (stereo not drawn)	> 7940 nM	> 631 nM	> 3.16 µM	> 631 nM	
O=C1N(CC2CCNCC2)CCN1c1cccc(Cl)c1	> 7940 nM	> 631 nM	> 3.16 µM	> 631 nM	
O=C1N(CC2CCCCN2)CCN1c1cccc(C(F)(F)F)c1 (stereo not drawn)	> 7940 nM	20 nM	> 3.16 µM	0.251 nM	
O=c1n(CCCN2CCCCCC2)ccn1-c1cccc(Cl)c1	> 7940 nM	631 nM	> 3.16 µM	126 nM	
